The first test deals with dopamine receptor.
Test: not given
The note with it: i.p.; result in words.
On to `O=C1CC2(CCCC2)CC(=O)N1CCCCN1CCN(c2ncccn2)CC1` [Buspirone, 8-[4-[4-(2-pyrimidinyl)-1-piperazinyl]butyl]-8-azaspiro[4.5]decane-7,9-dione], for which the “activity in the apomorphine-induced stereotyped behavior assay” value was “inactive”.

The next test concerns Male CD rats. As to the kind of experiment: conditioned avoidance (shelf-jump response) test. The format is in vivo. Conditions: i.p. An excerpt: A test designed to determine the potential antipsychotic activity of the compounds of the invention is the conditioned avoidance (shelf-jump response) test.
Male CD rats (Charles River) maintained at approximately 400-450 gm body weight are used. […] A moveable wall, controlled by a motor, determines whether the rat has access to the shelf at any time during the experiment. The experimental chamber also contains a house light and sonalert. A steel grid floor in the main chamber is wired for presentation of electric shock. Each trial consists of a fifteen-second warning tone (conditioned stimulus), continuing for an additional fifteen seconds accompanied by electric shock (unconditioned stimulus). A response (jumping onto the exposed shelf of the upper chamber) occurring during the initial fifteen-second warning tone is considered an avoidance response, while a response occurring during shock delivery is considered an escape response. Trials are presented on a fixed interval schedule of one minute. The session consists of thirty-six trials. Animals are run twice weekly with control sessions always preceding a drug run, and with at least one day intervening. Compounds are administered i.p. or p.o. at appropriate pre-treatment times to a minimum of five rats at each dose level over a range of doses.
The following experimental parameters are recorded by computer: (1) the number of avoidance responses, (2) the number of escape responses, and (3) the number of trials in which no response occurred.
Response counts are summed over all subjects at a given dose. […] This number is expressed as a percentage of the total trials. Control performance is arbitrarily assigned a value of 100% for avoidance responding and the dose calculated to produce a 50% block in avoidance responding (AB50) is obtained from a dose-effect regression line fitted by the method of least squares. Potential antipsychotic compounds suppress avoidance responding and increase escape responding.
The molecule “6-[4-[4-2-pyrimidinyl)-1-piperazinyl]butyl]-3a,4,4a,7a,8,8a-hexahydro-3-methyl-4,8-methano-5H-pyrrolo[3,4-f]-1,2-benzisoxazole-5,7(6H)-dione, dihydrochloride, hydrate [Example 8]” came in with an Active at of 40 mg/kg.
Still for that read-out and setting: the figure for `Cl.O=C1C2C3CS(=O)(=O)CC3C2C(=O)N1CCCCN1CCN(c2cncc(Cl)n2)CC1` (stereo not drawn) [Example 1, 5-[4-[4-(6-chloro-2-pyrazinyl)-1-piperazinyl]butyl]tetrahydro-1H-thieno[3',4':3,4]cyclobuta[1,2-c]pyrrole-4,6(3H,5H)-dione 2,2 dioxide hydrochloride] is 40 mg/kg; for `Cl.O=C1C2C3CS(=O)(=O)CC3C2C(=O)N1CCCCN1CCN(c2nccnc2Cl)CC1` (stereo not drawn) [Example 2, 5-[4-[4-(3-chloro-2-pyrazinyl)-1-piperazinyl]butyl]tetrahydro-1H-thieno[3',4':3,4]cyclobuta[1,2-c]pyrrole-4,6(3H,5H)dione 2,2-dioxide, hydrochloride] it is 40 mg/kg; for `CC1=NOC2C3CC(C12)C1C(=O)N(CCCCN2CCN(c4cncc(Cl)n4)CC2)C(=O)C31.O=C(O)C(=O)O` (stereo not drawn) [Example 6, 6-[4-[4-(6-chloro-2-pyrazinyl)-1-piperazinyl]butyl]-3a,4,4a,7a,8,8a-hexahydro-3-methyl-4,8-methano-5H-pyrrolo[3,4-f]-1,2-benzisoxazole-5,7(6H)-dione, ethanedioate (1:1)] it is 40 mg/kg.
The molecule `CC1=NOC2C3CC(C12)C1C(=O)N(CCCCN2CCN(c4cnccn4)CC2)C(=O)C31` (stereo not drawn) [Example 7, 6-[4-[4-(2-pyrazinyl)-1-piperazinyl]butyl]-3a,4,4a,7a,8,8a-hexahydro-3-methyl-4,8-methano-5H-pyrrolo[3,4-f]-1,2-benzisoxazole-5,7(6H)-dione, ethanedioate (1:1), hemiethanolate] yielded an Active at of 40 mg/kg.
On to `CC1=NOC2C3CCC(C12)C1C(=O)N(CCCCN2CCN(c4ncccn4)CC2)C(=O)C31.O=C(O)C(=O)O` (stereo not drawn) [Example 10, 6-[4-[4-(2-pyrimidinyl)-1-piperazinyl]butyl]-3a,4,4a,7a,8,8a-hexahydro-3-methyl-4,8-ethano-5H-pyrrolo[3,4-f]-1,2-benzisoxazole-5,7(6H)-dione, ethanedioate (1:1)], for which the Active at is given as 40 mg/kg.
For `CC1=NOC2C3CCC(C12)C1C(=O)N(CCCCN2CCN(c4cnccn4)CC2)C(=O)C31.O=C(O)C(=O)O` (stereo not drawn) [Example 11, 6-[4-[4-(2-pyrazinyl)-1-piperazinyl]butyl]-3a,4,4a,7a,8,8a-hexahydro-3-methyl-4,8-ethano-5H-pyrrolo[3,4-f]-1,2-benzisoxazole-5,7(6H)-dione, ethanedioate (1:1)], the Active at was determined as 40 mg/kg.

Staying with this test, now noted: p.o.
`Cl.O=C1C2C3CS(=O)(=O)CC3C2C(=O)N1CCCCN1CCN(c2cncc(Cl)n2)CC1` (stereo not drawn) [Example 1, 5-[4-[4-(6-chloro-2-pyrazinyl)-1-piperazinyl]butyl]tetrahydro-1H-thieno[3',4':3,4]cyclobuta[1,2-c]pyrrole-4,6(3H,5H)-dione 2,2 dioxide hydrochloride] came in with an Active at of 40 mg/kg.

(Values after patent US5053508A, “Fused heterotricyclic imides with psychotropic activity and intermedrates thereof” (American Home Products Corporation, priority 1990, dated 1991).)
